Laboratory results taken from patent publication US7101707B2, “Secondary sprouting for isolation and expansion of endothelial sprout cells and endothelial precursor cells from a mixed population and for screening substances” (Cedars-Sinai Medical Center, priority 2002, dated 2006).
“Also recorded” adds a separate entry of the source.

Legend:
[1] = system: bovine REC; assay: REC proliferation assay (MTS); assay type: cell-based
Procedure: REC proliferation and survival assays. 96-well plates were coated with various amounts of TN-C or vehicle. 5×10^3 cells were added to each triplicate well in low-serum REC medium with various amounts of growth factors (0.5% FCS incomplete BREC medium containing 10 ng/ml of human IGF-I, FGF-2, VEGF, PlGF and PDGF-BB [R&D Systems Inc., Minneapolis, Minn.]). Cell numbers were determined on days 4–7 using the MTS cell proliferation assay (Promega Corp.) according to manufacturer's instructions. Survival was measured in the same way using high glucose (30 mM) or chemical hypoxia (2 mM sodium azide) or serum-free medium to induce cell death. Cell numbers were determined on days 4–7 using MTS assay (Promega).

[2] = system: REC; assay: Capillary-like tube formation on MATRIGEL; assay type: cell-based, bovine
Procedure: (§1) In vitro MATRIGEL™ biological cell culture substrate assay of capillary-like tube formation and secondary sprouting. […] Briefly, 50 μL of reconstituted basement membrane matrix from mouse EHS tumor (BD or GFR MATRIGEL™ biological cell culture substrate; Becton Dickinson Labware, Bedford, Mass.) were dispensed with frozen pipettes into each well of a previously frozen, sterile 96-well plate sitting on wet ice and allowed to solidify for 1 hr at room temperature or 37° C. Approximately 5×10^4 or 7.5×10^4 REC in a 100 μL volume were seeded into each triplicate well. Human recombinant or purified growth factors were added to a final concentration of 10 ng/mL (or as noted) in 0.5% FCS incomplete BREC medium. Capillary-like tube structures formed by REC on reconstituted basement membrane matrix were photographed at various intervals ranging from 12–72 hr; pictures were scanned, digitized and analyzed using image-processing software.

[3] = Solubility of emodin in injection vehicle; assay type: physicochemical; settings: phosphate-buffered saline with 20% PEG 400 + 2% Tween-80, pH 7.2
Procedure: A minimum of 5 mouse pups were used per group. Emodin at 20–30 μg/g of body mass (or 10 μl/g) was prepared as a solution (70% ethanol) or suspension (PEG-Tween) in vehicle. Vehicle (“emodin solvent”) was 70% ethanol in initial experiments. In three later experiments, phosphate-buffered saline with 20% polyethylene glycol 400 (PEG 400)+2% Tween-80, pH 7.2, was used as vehicle.

[4] = system: bovine REC; assay: Migration (wound healing) assay; assay type: cell-based
Procedure: Migration assay. REC migration rates were examined in a wound healing assay, where cells migrate over time into the scrape wound in a monolayer. Briefly, cells were seeded in 24-well plates and allowed to reach confluence in growth medium. Prior to growth factor treatment, cells were serum-starved overnight in incomplete BREC medium with 0.5% FCS. All monolayers within an experiment were wounded with a single sterile wood stick of constant diameter, to ensure uniformity in the wound areas among different treatments. Wounded monolayers were then rinsed with low-serum medium to remove detached cells and treated with various combinations of human growth factors at 10 ng/mL each. On day 7, cells were rinsed 3× with PBS and fixed with methanol for 15 min, rehydrated with dH2O and stained with Meyer's hematoxylin for 5 min, followed by destaining with dH2O. All wells were photographed with a 4× or 10× objective using a Kodak MDS 100 digital camera attached to a Leitz DM IL inverted microscope. The original wound area was measured at 0 hr and used as a baseline for comparison to the treated wells at the conclusion of the experiment. The number of cells migrated into the wound was determined. Migrating cell counting was automated using the AAB (Advanced American Biotechnology, Fullerton, Calif.) software. Data were calculated and statistically analyzed (Spirin K S et al., Basement membrane and growth factor gene expression in normal and diabetic human retinas, Curr. Eye Res. 18:490–499 [1999]) relative to control cultures that received the same concentrations of bovine serum albumin instead of growth factors and/or inhibitor, compared to vehicle instead of inhibitor after wounding. Inhibitors were added 30 min before growth factors.

[5] = system: bovine REC; assay: Secondary sprouting assay on reconstituted basement membrane matrix (MTS); assay type: cell-based
Procedure: as §1
For the secondary sprouting assay, cells on reconstituted basement membrane matrix were seeded as above but incubated in 0.5% FCS incomplete BREC medium without any growth factors for 3 days, allowing for tube formation and collapse. On day 3, human recombinant or purified growth factors were added to a final concentration of 10 ng/mL (or as noted) in low-serum incomplete BREC medium and incubated for another 5–6 days. Digital photographs were obtained with a Kodak MDS 100 camera attached to a Leitz DM IL inverted microscope. Digitized images obtained with a Kodak MDS 100 video camera were stored on compact discs and quantified with NIH Image 1.62 software. The number of living cells in the sprouting colonies were determined using the MTS cell proliferation assay.
A good correlation was observed between the spherical volume and the number of live cells in secondary sprouting colonies (not shown). Since the latter is an easy parameter to test by using the MTS assay, it was adopted as a faster method for studying the effect of various agents on secondary sprouting.

[6] = system: retinal neovascularization; assay: Oxygen-induced retinopathy in newborn mice; assay type: in vivo, mouse
[7] = system: secondary sprouting colonies; assay: Marker expression in secondary sprouting colonies (RT-PCR, immunofluorescence); assay type: cell-based; settings: treatment of secondary sprouting colonies
Procedure: Detection of markers expressed by cells selected from secondary sprouting colonies was carried out using reverse-transcriptase polymerase chain reaction (RT-PCR) with RNA derived from secondary sprouting cells, which was compared to RNA derived from non-sprouting cells. The RT-PCR method allows the detection of low-levels of message coding for the above-mentioned markers. Following manufacturer's instructions, RNA isolation was done with a QiaShredder kit (Qiagen) on isolated sprouts (scooped out of MATRIGEL™ biological cell culture substrate) followed by use of the RNAeasy kit (Qiagen), and the RT-reaction was conducted using a SMART cDNA kit (Clontech) and the RT-PCR protocol, as described in Hamdi et al., Biochem Biophys Res Commun. 295(3):668–72 [Jul. 19, 2002] but using approx. 50 ng of cDNA instead of genomic DNA per PCR reaction. The following primers were used: […]

[8] = system: telomerase; assay: Telomerase assay (TRAP) in cultured endothelial cells; assay type: cell-based
Description: Cells in secondary sprouting colonies contained high telomerase activity (FIG. 10, 3rd column) when compared to the parental cells (1st column), as measured by telomerase assay (TRAP; Yang, J., et al., Stem and germline cells are among the only cells in postnatal tissues that continue to express telomerase activity, J. Biol. Chem. 274(37):26141–26148 [1999]; Hsiao, R. et al., Mature endothelial cells express very low levels of telomerase and it's lost during the first five divisions in vitro, Anticancer Res 17:827–832 [1997]; Kolquist, K A et al., Nature Genet 19:182–186 [1998] as reviewed by Chang E et al. J. Invest. Dermatol. 118:752–8. [2002]). This enzyme activity is either very low or absent in aging or differentiated cells, but it is high in precursors. (Armstrong et al., mTert expression correlates with telomerase activity during the differentiation of murine embryonic stem cells. Mech Dev. 2000. 97(1–2):109–116). Telomerase activity is also high in invasive and highly proliferative cancers but not in normal adult cells. (Blasco et al., Telomeres and telomerase. Genes & Development. 1999. 13:2353–2359).

[9] = basal and growth factor-stimulated (CK2 blockers), H-7 preliminary, not shown

Q: With `Cc1cc(O)c2c(c1)C(=O)c1cc(O)cc(O)c1C2=O` [emodin, 3-methyl-1,6,8-trihydroxyanthraquinone] as the compound, how does the “effect of kinase inhibitors on proliferation” value [1, 9] read?
A: potently inhibited

Q: And the “effect of kinase inhibitors on tube formation” value [2, 9]?
A: potently inhibited

Q: And the solubility in vehicle [3]?
A: did not ensure emodin solubility

Q: What about the “effect of kinase inhibitors on migration” value [4, 9] of the same compound?
A: potently inhibited

Q: What about the “effect on growth factor-mediated cell migration” value ([4]; four GFs 10 ng/ml each, 7 days, 0.5% serum, emodin 10 μM, DRB 15 μM) of the same compound?
A: significant inhibitory effect

Q: And the “effect of kinase inhibitors on secondary sprouting” value [5, 9]?
A: potently inhibited

Q: What about the “neovascular tufts in fluorescein angiograms vs vehicle control” value ([6]; intraperitoneal) of the same compound?
A: much less pronounced

Q: And the “retinal vascularization in fluorescein angiograms vs vehicle control” value ([6]; intraperitoneal)?
A: significantly less vascularization

Q: And the “diminution of retinal neovascularization (preretinal nuclei count)” value ([6]; two intraperitoneal injections daily, day 11 to 17 after birth, emodin 20–30 μg/g, vs untreated or vehicle)?
A: 70–75%

Q: Which results are given for “PDGF-BB: platelet derived growth factor (PDGF)-BB, human recombinant or purified angiogenic growth factor”?
A: expression of AC133, CD166, AML-1, uPA, tPA [7]: increased the expression; effect of growth factors on REC proliferation ([1]; growth factors 10 ng/mL each): potent stimulator; effect of growth factors on tube formation ([2]; growth factors 10 ng/mL each): pro-collapsing factor; telomerase activity of differentiated endothelial cells ([8]; differentiative culture conditions (plastic, no MATRIGEL)): opposite effect; telomerase activity of sprouting colonies ([8]; expansive culture conditions (MATRIGEL, low serum medium)): increases the activity of telomerase; effect of growth factors on REC migration ([4]; growth factors 10 ng/mL each): potent stimulator; morphology of sprouting colonies after growth factor treatment ([5]; 10 ng/mL): shorter and thicker sprouts; effect of growth factors on secondary sprouting (live cell number) ([5]; 10 ng/mL, 0.5% FCS medium): potently stimulated; also recorded: most potent single growth factor; also recorded: potent stimulator; also recorded: dramatic increase; also recorded: greatly enhanced; also recorded: the most potent; additivity of effect on secondary sprouting with individual growth factors ([5]; PDGF-BB 1 ng/mL ± VEGF, IGF-I, PlGF or FGF-2 10 ng/mL, added day 3): not additive or synergistic; also recorded: not additive; effect on secondary sprouting when added after tube collapse ([5]; growth factor added after the tubes had collapsed (day 3)): again increased secondary sprouting; stimulation of secondary sprouting (fold, on average) ([5]; growth factors, live cells by MTS): three-fold; additivity of effect on secondary sprouting with combinations of three growth factors ([5]; three growth factors 10 ng/mL each plus fourth factor 0–100 ng/mL, added day 3): potentiated their responses; also recorded: additive
